This is an account of results in patent publication US9382197B2, “Substituted hydroxamic acids and uses thereof” (Millennium Pharmaceuticals, Inc., priority 2010, dated 2016).

One may read the IC50 as the concentration at which inhibition is half-maximal.

A value given as a limit tells only on which side of the number the result lay.

One experiment addresses T1, purified human HDAC6 (Homo sapiens, UniProt Q9UBN7).
T1 construct: purchased BPS Bioscience 5006
T1 sequence (Q9UBN7 1-1215): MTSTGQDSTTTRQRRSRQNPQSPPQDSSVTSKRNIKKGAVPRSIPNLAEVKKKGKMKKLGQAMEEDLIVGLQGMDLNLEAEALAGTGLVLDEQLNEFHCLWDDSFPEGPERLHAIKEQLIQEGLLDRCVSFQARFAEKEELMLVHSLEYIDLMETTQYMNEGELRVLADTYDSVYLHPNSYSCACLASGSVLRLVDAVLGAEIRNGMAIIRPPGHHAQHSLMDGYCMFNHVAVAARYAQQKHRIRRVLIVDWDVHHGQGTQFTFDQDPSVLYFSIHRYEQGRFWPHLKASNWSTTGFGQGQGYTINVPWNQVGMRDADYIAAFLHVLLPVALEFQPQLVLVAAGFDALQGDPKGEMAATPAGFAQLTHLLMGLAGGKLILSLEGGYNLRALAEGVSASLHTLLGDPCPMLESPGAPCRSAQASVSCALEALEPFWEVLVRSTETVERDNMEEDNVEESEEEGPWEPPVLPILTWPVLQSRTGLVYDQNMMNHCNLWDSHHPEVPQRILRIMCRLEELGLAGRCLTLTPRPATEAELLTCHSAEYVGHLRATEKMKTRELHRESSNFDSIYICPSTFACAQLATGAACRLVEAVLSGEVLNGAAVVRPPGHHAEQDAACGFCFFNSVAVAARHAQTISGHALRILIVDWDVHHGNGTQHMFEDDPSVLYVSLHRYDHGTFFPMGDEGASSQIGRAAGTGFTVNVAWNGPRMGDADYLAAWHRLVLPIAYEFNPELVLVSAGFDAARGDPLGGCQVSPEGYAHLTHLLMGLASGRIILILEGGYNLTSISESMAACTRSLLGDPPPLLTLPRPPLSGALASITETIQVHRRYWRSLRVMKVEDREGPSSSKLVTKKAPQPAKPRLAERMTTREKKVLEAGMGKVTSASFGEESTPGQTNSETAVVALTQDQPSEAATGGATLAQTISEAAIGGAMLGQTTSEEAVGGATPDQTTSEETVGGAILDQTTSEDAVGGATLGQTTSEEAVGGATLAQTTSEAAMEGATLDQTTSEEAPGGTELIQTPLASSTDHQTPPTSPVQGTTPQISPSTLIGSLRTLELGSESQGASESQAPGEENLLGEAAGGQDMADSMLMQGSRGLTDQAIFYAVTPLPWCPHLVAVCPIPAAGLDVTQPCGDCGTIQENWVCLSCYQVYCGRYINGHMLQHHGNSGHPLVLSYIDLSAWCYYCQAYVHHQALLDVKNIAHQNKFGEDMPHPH
The experiment in a line: HDAC6 Enzyme Assay. Conditions: bin: greater than 500 nM and less than 1 μM (lower bound in nM, upper bound in μM). Type of experiment: biochemical. How it is done:
To measure the inhibition of HDAC6 activity, purified human HDAC6 (BPS Bioscience; Cat. No. 5006) is incubated with substrate Ac-Arg-Gly-Lys(Ac)-AMC peptide (Bachem Biosciences; Cat. No. 1-1925) for 1 hour at 30° C. in the presence of test compounds or vehicle DMSO control. The reaction is stopped with the HDAC inhibitor trichostatin A (Sigma; Cat. No. T8552) and the amount of Arg-Gly-Lys-AMC generated is quantitated by digestion with trypsin (Sigma; Cat. No. T1426) and subsequent measurement of the amount of AMC released using a fluorescent plate reader (Pherastar; BMG Technologies) set at Ex 340 nm and Em 460 nm. Concentration response curves are generated by calculating the fluorescence increase in test compound-treated samples relative to DMSO-treated controls, and enzyme inhibition (IC50) values are determined from those curves.
As for `CC(NC(=O)Cc1csc2ccc(Cl)cc12)c1cccc(C(=O)NO)c1` (centres unmarked) [Compound I-13, 3-(1-{[(5-chloro-1-benzothien-3-yl)acetyl]amino}ethyl)-N-hydroxybenzamide], the IC50 fell in the range of 500 to 1000 nM.

Regarding `CC(NC(=O)C1(c2ccc(Cl)cc2)CC1)c1cccc(C(=O)NO)c1` (centres unmarked) [Compound I-183, 3-[1-({[1-(4-chlorophenyl)cyclopropyl]carbonyl}amino)ethyl]-N-hydroxybenzamide], the IC50 lay within 500 to 1000 nM.

Turning to `CC(C)C(NC(=O)C(c1ccccc1)c1ccccc1)c1ccc(C(=O)NO)cc1` (centres unmarked) [Compound I-204, 4-{1-[(diphenylacetyl)amino]-2-methylpropyl}-N-hydroxybenzamide], the IC50 was in the range of 500 to 1000 nM.

Staying with this experiment, now noted: bin: greater than 1 μM.
The compound `CC(C)(C)CC(=O)NC(c1ccc(C(=O)NO)cc1)C(C)(C)C` (centres unmarked) [Compound I-396, 4-{1-[(3,3-dimethylbutanoyl)amino]-2,2-dimethylpropyl}-N-hydroxybenzamide] had an IC50 of more than 1000 nM.

`Cc1noc(C)c1C(=O)NC(c1ccc(C(=O)NO)cc1)C(C)C` (centres unmarked) [Compound I-238, N-(1-{4-[(hydroxyamino)carbonyl]phenyl}-2-methylpropyl)-3,5-dimethylisoxazole-4-carboxamide]: the half-inhibitory concentration (IC50) is more than 1000 nM.

In the case of `Cc1c(C(=O)N[C@H](C)c2cccc(C(=O)NO)c2)oc2ccccc12` [Compound I-169, N-((1R)-1-{3-[(hydroxyamino)carbonyl]phenyl}ethyl)-3-methyl-1-benzofuran-2-carboxamide], the IC50 was more than 1000 nM.

In turn, `CCC[C@@H](NS(=O)(=O)c1ccc(C(F)(F)F)cc1)c1ccc(C(=O)NO)cc1` [Compound I-171, N-hydroxy-4-[(1R)-1-({[4-(trifluoromethyl)phenyl]sulfonyl}amino)butyl]benzamide] displayed an IC50 of more than 1000 nM.

As for `Cc1cc(C(=O)NO)ccc1C(C)NC(=O)c1cccn1C` (centres unmarked) [Compound I-486, N-(1-{4-[(hydroxyamino)carbonyl]-2-methylphenyl}ethyl)-1-methyl-1H-pyrrole-2-carboxamide], the IC50 was more than 1000 nM.

Staying with this experiment, now noted: purified human HDAC6, substrate Ac-Arg-Gly-Lys(Ac)-AMC, 1 hour at 30° C.; reported as bins.
For the compound `CC(NC(=O)NC(C)c1ccc(C(=O)NO)cc1)c1ccccc1` (centres unmarked) [Compound I-196, N-hydroxy-4-[1-({[(1-phenylethyl)amino]carbonyl}amino)ethyl]benzamide], the IC50 was in the range of 100 to 500 nM.

The compound `Cc1cc(C(=O)NC(c2ccc(C(=O)NO)cc2)C(C)(C)C)c(C)[nH]1` (centres unmarked) [Compound I-310, N-(1-{4-[(hydroxyamino)carbonyl]phenyl}-2,2-dimethylpropyl)-2,5-dimethyl-1H-pyrrole-3-carboxamide] registered a concentration for half-maximal inhibition (IC50) of 100 to 500 nM.

`Cc1c(C(=O)NC(c2ccc(C(=O)NO)cc2)C(C)(C)C)cnn1-c1ccccc1` (centres unmarked) [Compound I-182, N-(1-{4-[(hydroxyamino)carbonyl]phenyl}-2,2-dimethylpropyl)-5-methyl-1-phenyl-1H-pyrazole-4-carboxamide] showed an IC50 of 100 to 500 nM.

Consider `CC(C)C(NC(=O)c1cc2cc(Cl)ccc2o1)c1ccc(C(=O)NO)cc1` (centres unmarked) [Compound I-130, 5-chloro-N-(1-{4-[(hydroxyamino)carbonyl]phenyl}-2-methylpropyl)-1-benzofuran-2-carboxamide], for which the IC50 was less than 100 nM.

In turn, `CC(NC(=O)c1cc2ccccc2s1)c1cccc(C(=O)NO)c1` (centres unmarked) [Compound I-97, N-(1-{3-[(hydroxyamino)carbonyl]phenyl}ethyl)-1-benzothiophene-2-carboxamide] gave a 50% inhibitory concentration (IC50) of 100 to 500 nM.

Compound `CC(NC(=O)c1cc2ccccc2o1)c1ccc(C(=O)NO)cc1` (centres unmarked) [Compound I-207, N-(1-{4-[(hydroxyamino)carbonyl]phenyl}ethyl)-1-benzofuran-2-carboxamide] returned an IC50 of less than 100 nM.

As to `O=C(NO)c1ccc([C@H](NC(=O)c2ccc(-c3ccccc3)cc2)C(F)(F)F)cc1` [Compound I-296, N-((1S)-2,2,2-trifluoro-1-{4-[(hydroxyamino)carbonyl]phenyl}ethyl)biphenyl-4-carboxamide], the IC50 is less than 100 nM.

In turn, `Cc1cccc(CNC(=O)NC(C)c2ccc(C(=O)NO)cc2)c1` (centres unmarked) [Compound I-316, N-hydroxy-4-[1-({[(3-methylbenzyl)amino]carbonyl}amino)ethyl]benzamide] had an IC50 of 100 to 500 nM.

Regarding `Cc1cc(C)c(S(=O)(=O)NC(C)c2ccc(C(=O)NO)cc2)c(C)c1` (centres unmarked) [Compound I-176, N-hydroxy-4-{1-[(mesitylsulfonyl)amino]ethyl}benzamide], the IC50 fell in the range of 100 to 500 nM.

The compound `CC(NC(=O)Nc1cc(Cl)ccc1Cl)c1ccc(C(=O)NO)cc1` (centres unmarked) [Compound I-89, 4-[1-({[(2,5-dichlorophenyl)amino]carbonyl}amino)ethyl]-N-hydroxybenzamide] displayed an IC50 of less than 100 nM.

Compound `CCC[C@@H](NC(=O)c1cc2ccccc2s1)c1ccc(C(=O)NO)cc1` [Compound I-299, N-((1R)-1-{4-[(hydroxyamino)carbonyl]phenyl}butyl)-1-benzothiophene-2-carboxamide] yielded an IC50 of less than 100 nM.

Take `Cc1cc(C(=O)NO)ccc1C(C)NC(=O)c1cc2ccccc2s1` (centres unmarked) [Compound I-485, N-(1-{4-[(hydroxyamino)carbonyl]-2-methylphenyl}ethyl)-1-benzothiophene-2-carboxamide]: the IC50 was in the range of 100 to 500 nM.

Consider `CC(C)C(NC(=O)C1CCCC1)c1ccc(C(=O)NO)cc1` (centres unmarked) [Compound I-255, 4-{1-[(cyclopentylcarbonyl)amino]-2-methylpropyl}-N-hydroxybenzamide], for which the IC50 is 100 to 500 nM.

`CC(NC(=O)Nc1cccc2nsnc12)c1ccc(C(=O)NO)cc1` (centres unmarked) [Compound I-293, 4-(1-{[(2,1,3-benzothiadiazol-4-ylamino)carbonyl]amino}ethyl)-N-hydroxybenzamide] displayed an IC50 of less than 100 nM.

In turn, `CC(=O)c1cccc(NC(=O)NC(C)c2ccc(C(=O)NO)cc2)c1` (centres unmarked) [Compound I-358, 4-[1-({[(3-acetylphenyl)amino]carbonyl}amino)ethyl]-N-hydroxybenzamide] came in with an IC50 of less than 100 nM.

In turn, `CC(NC(=O)c1cc2ccccc2o1)c1cccc(C(=O)NO)c1` (centres unmarked) [Compound I-401, N-(1-{3-[(hydroxyamino)carbonyl]phenyl}ethyl)-1-benzofuran-2-carboxamide] came in with an IC50 of 100 to 500 nM.

`CC(NC(=O)c1ccccc1Cl)c1ccc(C(=O)NO)cc1` (centres unmarked) [Compound I-269, 2-chloro-N-(1-{4-[(hydroxyamino)carbonyl]phenyl}ethyl)benzamide] yielded an IC50 of less than 100 nM.

For `CC(NC(=O)C1=Cc2ccccc2OC1)c1ccc(C(=O)NO)cc1` (centres unmarked) [Compound I-224, N-(1-{4-[(hydroxyamino)carbonyl]phenyl}ethyl)-2H-chromene-3-carboxamide], the IC50 is less than 100 nM.

Regarding `Cn1c(C(=O)NC(c2ccc(C(=O)NO)cc2)C(C)(C)C)cc2ccccc21` (centres unmarked) [Compound I-364, N-(1-{4-[(hydroxyamino)carbonyl]phenyl}-2,2-dimethylpropyl)-1-methyl-1H-indole-2-carboxamide], the IC50 was 100 to 500 nM.

As for `CC(C)[C@@H](NC(=O)N[C@@H](C)c1ccccc1)c1ccc(C(=O)NO)cc1` [Compound I-516, N-hydroxy-4-{(1R)-2-methyl-1-[({[(1S)-1-phenylethyl]amino}carbonyl)amino]propyl}benzamide], the IC50 was less than 100 nM.

The compound `CC(C)C(NC(=O)c1ccc(-c2ccccc2)[nH]c1=O)c1ccc(C(=O)NO)cc1` (centres unmarked) [Compound I-375, N-(1-{4-[(hydroxyamino)carbonyl]phenyl}-2-methylpropyl)-2-oxo-6-phenyl-1,2-dihydropyridine-3-carboxamide] yielded a 50% inhibitory concentration (IC50) of less than 100 nM.
